# Laboratory results published in BindingDB's records for doi:10.1021/jm020355o (University of Arizona, 2003).
# Test: Antagonistic activity towards Melanocortin 1 receptor in Xenopus frog skin using competitive binding in the presence of 500 pM of alpha-melanocyte stimulating hormone
row,SMILES,IC50
1,"CC(C)[C@H](NC(=O)[C@@H]1CCC(=O)NCC(=O)N2CCC[C@H]2C(=O)N[C@H](Cc2ccccc2)C(=O)N[C@@H](CCCN=C(N)N)C(=O)N[C@@H](Cc2c[nH]c3ccccc23)C(=O)N1)C(=O)N[C@H](C(=O)NCC(N)=O)C(C)C [19-Benzyl-16-(3-guanidino-propyl)-13-(1H-indol-3-ylmethyl)-4,7,12,15,18,21-hexaoxo-docosahydro-3a,6,11,14,17,20-hexaaza-cyclopentacycloicosene-10-carboxylic acid {1-[1-(carbamoylmethyl-carbamoyl)-2-methyl-propylcarbamoyl]-2-methyl-propyl}-amide]",10000 nM
2,CC(C)[C@H](NC(=O)[C@@H]1CCC(=O)NCC(=O)N2CCC[C@H]2C(=O)N[C@H](Cc2ccc3ccccc3c2)C(=O)N[C@@H](CCCN=C(N)N)C(=O)N[C@@H](Cc2c[nH]c3ccccc23)C(=O)N1)C(=O)N[C@H](C(=O)NCC(N)=O)C(C)C [c[Gly-Pro-D-Nal(2')-Arg-Trp-Glu]-Val-Val-Gly-NH2],637 nM
3,CC(C)[C@H](NC(=O)[C@@H]1CCC(=O)N2CCC[C@H]2C(=O)N[C@H](Cc2ccc3ccccc3c2)C(=O)N[C@@H](CCCN=C(N)N)C(=O)N[C@@H](Cc2c[nH]c3ccccc23)C(=O)N1)C(=O)N[C@H](C(=O)NCC(N)=O)C(C)C [c[Pro-D-Nal(2')-Arg-Trp-Glu]-Val-Val-Gly-NH2],1500 nM
